Experiment [1] concerns arterial actin-myosin interactions. Briefly: inhibition of superprecipitation (antagonism of arterial actin-myosin interaction). Format: biochemical. To be noted: six minute time-point, mean±SEM. The protocol: (§1) The data reported herein was obtained at a six minute time-point rather than the 1.5, 5 and 12 minute time points indicated in the superprecipitation assay of the Silver et al. paper.
(§2) The following examples illustrate the preparation of a representative number of compounds of this invention. After each example, and Ca^+2 antagonist activity of the compound is presented in terms of percent relaxation of aortic tissue (P.R.) at 10^-5 M concentration. […] Inhibition of superprecipitation (Antag. of Actin-Myosin interaction) is expressed as percent inhibition (mean±standard error of the mean for at least 3 separate experiments) at a compound concentration. In the same manner, inhibition of myosin light chain phosphorylation (Antag. of MLCP) is expressed as a percent inhibition at a compound concentration. Similarly, the antihypertensive activity is reported in terms of millimeters mercury (mmHg) systolic blood pressure (B.P.) reduction at the stated time post 50 mg/kg oral dosing or other dosing as indicated.

Experiment [2] has as its system Ca^+2 -calmodulin dependent myosin light chain phosphorylation. The experiment can be described thus: inhibition of Ca^+2-calmodulin dependent myosin light chain phosphorylation (MLCP). Format: biochemical. The method, then: as §1, §2
For experiment [3], the system named is spontaneously hypertensive rats. The experiment can be described thus: decrease in systolic blood pressure of spontaneously hypertensive rats. Format: in vivo, rat.
Experiment [4] deals with isolated paced intact rabbit atria. Briefly: negative inotropic (cardiac depressant) effect in isolated paced intact rabbit atria. The note with it: Oryctolagus cuniculus, 3 Hz, cumulative 10^-9 M to 10^-5 M, read-out: IC25 (concentration which produces 25% inhibition of isometric force). Format: cell-based. The method, then: The potential for detrimental cardiac depressant (negative inotropic) effects of the compounds of this invention was assessed in isolated paced intact rabbit atria. Left and right atria (with nodal tissue excised) were suspended vertically in a jacketed (30° C.) organ bath containing 50 ml of PSS and aerated with 95% O2 /5% CO2. Muscles (N=5-9/compound) were stimulated at a frequency of 3 Hz with a WPI stimulator for a 60 minute equilibration period. Changes in isometric force were recorded as described for the aortic smooth muscle experiments,supra. Following equilibration, the test compound (or as a control, the ethanol vehicle) was added to the organ bath in a cumulative manner from doses ranging from 10^-9 M to 10^-5 M (10^-5 M was the maximum dose which could be attained due to the depressant effect of ethanol) and effects on developed isometric force were determined.
as §2

In the case of `COC(COC(=O)C1=C(C)NC2=C(C(=O)CNC2)C1c1c(F)c(F)c(F)c(F)c1F)c1ccccc1` (stereo not shown) [Example 5, 1,4,5,6,7,8-Hexahydro-2-methyl-5-oxo-4-(pentafluorophenyl)-1,7-naphthryridine-3-carboxylic acid 2-methoxy-2-phenylethyl ester], the results for the “inhibition of superprecipitation (Antag. of Actin-Myosin)” value (“inhibition of superprecipitation” for short) in experiment [1] (25 μM), in experiment [1] (50 μM) and in experiment [1] (100 μM) were 20±5%, 50±5% and 75±4%, respectively. Besides, the figures for the “inhibition of myosin light chain phosphorylation (Antag. of MLCP)” value (shortened to “inhibition … (Antag. of MLCP)”) in experiment [2] (25 μM), in experiment [2] (50 μM) and in experiment [2] (100 μM) were 21±3%, 48±2% and 70±3%, respectively. The “systolic blood pressure (B.P.) reduction” value in experiment [3] (5 mg/kg, 1.5 hours) is listed as -44 mmHg; in experiment [3] (5 mg/kg, 4 hours) it was -38 mmHg; in experiment [3] (10 mg/kg, 1.5 hours), -41 mmHg; in experiment [3] (10 mg/kg, 4 hours), -68 mmHg; in experiment [3] (25 mg/kg, 1.5 hours), -60 mmHg; in experiment [3] (25 mg/kg, 4 hours), -72 mmHg. Further, in experiment [4], the IC25 worked out at 1000 nM.
On to `CO[C@H](COC(=O)C1=C(C)NC2=C(C(=O)CNC2)C1c1c(F)c(F)c(F)c(F)c1F)c1ccccc1` (stereo partly drawn) [Example 7, 1,4,5,6,7,8-Hexahydro-2-methyl-5-oxo-4-(pentafluorophenyl)-1,7-naphthyridine-3-carboxylic acid (S)-2-methoxy-2-phenylethyl ester], for which the results for the “inhibition of superprecipitation” value in experiment [1] (50 μM) and in experiment [1] (100 μM) were 67% and 80%, respectively. Besides, the “inhibition … (Antag. of MLCP)” value in experiment [2] (50 μM) is on record as 59%; in experiment [2] (100 μM), 74%. The “systolic blood pressure (B.P.) reduction” value was -51 mmHg in experiment [3] (10 mg/kg, 1.5 hours) and -54 mmHg in experiment [3] (10 mg/kg, 4 hours). Besides, the IC25 in experiment [4] amounted to 6500 nM.
As to `CC1=C(C(=O)OCCOc2cccc(Cl)c2Cl)C(c2c(F)c(F)c(F)c(F)c2F)C2=C(CNCC2=O)N1` (stereo not shown) [Example 22, 1,4,5,6,7,8-Hexahydro-2-methyl-5-oxo-4-(pentafluorophenyl)-1,7-naphthyridine-3-carboxylic acid 2-(2,3-dichlorophenoxy)ethyl ester], the “inhibition of superprecipitation” value in experiment [1] (10 μM) is 30±3%; in experiment [1] (25 μM), 54±3%; in experiment [1] (50 μM), 75±4%; in experiment [1] (100 μM), 78±1%. Further, the “inhibition … (Antag. of MLCP)” value in experiment [2] (10 μM) was found to be 25%; in experiment [2] (25 μM), 54±2.5%; in experiment [2] (50 μM) it was 73±1.5%; in experiment [2] (100 μM) it was 74±2%. Further, the “systolic blood pressure (B.P.) reduction” value was -37 mmHg in experiment [3] (25 mg/kg, 1.5 hours) and -52 mmHg in experiment [3] (25 mg/kg, 4 hours). Further, the IC25 in experiment [4] worked out at 1000 nM.

Values taken from patent publication US4596873A, “1,4,5,6,7,8-Hexahydro-2-alkyl-4-aryl-5-oxo-1,7-naphthyridine-3-carboxyl ic acid aromatic esters and pharmaceutically acceptable acid addition salts thereof useful as antihypertensive agents” (American Home Products Corporation, priority 1985, dated 1986).
